Reference: publication PMC10620772, “Design, synthesis, and biological evaluation of new pyrimidine-5-carbonitrile derivatives as novel anti-cancer, dual EGFR^WT/COX-2 inhibitors with docking studies” (RSC Advances, 2023)

Legend:
HepG2 = tested on: HepG2; parameters: method as in PMID 32115728, PMID 32959865; settings: antiproliferation; cited from earlier work
[1] = parameters: method as in PMID 26764192, PMID 22249410, PMID 21414695; settings: cited from earlier work
[2] = tested on: active caspase-3 in Colo 205 cells; assay: Caspase-3 ELISA; format: cell-based, human; settings: Colo_205, treated at IC50
From the text: Among the death proteases, the caspases family of cysteine-dependent aspartate-directed proteases is significant. There are multiple levels where caspase activation and activity are regulated.[43] Caspases are activated during apoptosis, which eventually results in cell death by deactivating a number of signals.[44] One of the crucial survival signals, EGFR, may be the target of caspase activation to ensure the completion of apoptosis.[45] Additionally, it has been reported that activating caspase-3 through COX-2 inhibition enhances apoptosis.[40] Therefore, the impact of the novel compounds on the level of caspase 3 was examined.
(1) Into the antibody coated wells add 100 μl of standard diluent buffer excepts wells wich detected to be the chromogen blank, then add 100 μl. […] (10) Decant liquid from wells then wash, (11) pipette 100 μl of chromogen substrate to all wells, The well fluid will start to become blue. (12) 30 minutes should be spent incubating at room temperature in the dark. (13) To each well, add 100 μl of stop solution. To mix, lightly tap the plate's edge. The well solution should transform from blue to yellow. (14) Read the absorbance of each well using a microtiter plate reader at 450 nm. (15) Draw the standard curve using a curve fitting program. (16) The standard curve can be used to determine the concentrations for unknown samples and controls.[55]

MALME-3M [3] = tested on: MALME-3M; parameters: method as in PMID 32115728, PMID 32959865; settings: cited from earlier work
CCRF-CEM = assay: NCI60 antitumor screening; format: cell-based, human; settings: 10 μM one-dose
HL-60(TB) = assay: NCI60 antitumor screening; format: cell-based, human; settings: 10 μM one-dose
K-562 = assay: NCI60 antitumor screening; format: cell-based, human; settings: 10 μM one-dose
MOLT-4 = assay: NCI60 antitumor screening; format: cell-based, human; settings: 10 μM one-dose
RPMI-8226 = assay: NCI60 antitumor screening; format: cell-based, human; settings: 10 μM one-dose
SR = assay: NCI60 antitumor screening; format: cell-based, human; settings: 10 μM one-dose
A549/ATCC = assay: NCI60 antitumor screening; format: cell-based, human; settings: 10 μM one-dose
EKVX = assay: NCI60 antitumor screening; format: cell-based, human; settings: 10 μM one-dose
HOP-62 = assay: NCI60 antitumor screening; format: cell-based, human; settings: 10 μM one-dose
HOP-92 = assay: NCI60 antitumor screening; format: cell-based, human; settings: 10 μM one-dose
NCI-H226 = assay: NCI60 antitumor screening; format: cell-based, human; settings: 10 μM one-dose
NCI-H23 = assay: NCI60 antitumor screening; format: cell-based, human; settings: 10 μM one-dose
NCI-H322M = assay: NCI60 antitumor screening; format: cell-based, human; settings: 10 μM one-dose
NCI-H460 = assay: NCI60 antitumor screening; format: cell-based, human; settings: 10 μM one-dose
NCI-H522 = assay: NCI60 antitumor screening; format: cell-based, human; settings: 10 μM one-dose
COLO 205 = assay: NCI60 antitumor screening; format: cell-based, human; settings: 10 μM one-dose
HCC-2998 = assay: NCI60 antitumor screening; format: cell-based, human; settings: 10 μM one-dose
HCT-116 = assay: NCI60 antitumor screening; format: cell-based, human; settings: 10 μM one-dose
HCT-15 = assay: NCI60 antitumor screening; format: cell-based, human; settings: 10 μM one-dose
HT29 = assay: NCI60 antitumor screening; format: cell-based, human; settings: 10 μM one-dose
KM12 = assay: NCI60 antitumor screening; format: cell-based, human; settings: 10 μM one-dose
SW-620 = assay: NCI60 antitumor screening; format: cell-based, human; settings: 10 μM one-dose
SF-268 = assay: NCI60 antitumor screening; format: cell-based, human; settings: 10 μM one-dose
SF-295 = assay: NCI60 antitumor screening; format: cell-based, human; settings: 10 μM one-dose
SF-539 = assay: NCI60 antitumor screening; format: cell-based, human; settings: 10 μM one-dose
SNB-19 = assay: NCI60 antitumor screening; format: cell-based, human; settings: 10 μM one-dose
SNB-75 = assay: NCI60 antitumor screening; format: cell-based, human; settings: 10 μM one-dose
U251 = assay: NCI60 antitumor screening; format: cell-based, human; settings: 10 μM one-dose
LOX IMVI = assay: NCI60 antitumor screening; format: cell-based, human; settings: 10 μM one-dose
MALME-3M [4] = assay: NCI60 antitumor screening; format: cell-based, human; settings: 10 μM one-dose
M14 = assay: NCI60 antitumor screening; format: cell-based, human; settings: 10 μM one-dose
MDA-MB-435 = assay: NCI60 antitumor screening; format: cell-based, human; settings: 10 μM one-dose
SK-MEL-2 = assay: NCI60 antitumor screening; format: cell-based, human; settings: 10 μM one-dose
SK-MEL-28 = assay: NCI60 antitumor screening; format: cell-based, human; settings: 10 μM one-dose
SK-MEL-5 = assay: NCI60 antitumor screening; format: cell-based, human; settings: 10 μM one-dose
UACC-257 = assay: NCI60 antitumor screening; format: cell-based, human; settings: 10 μM one-dose
UACC-62 = assay: NCI60 antitumor screening; format: cell-based, human; settings: 10 μM one-dose
IGROV1 = assay: NCI60 antitumor screening; format: cell-based, human; settings: 10 μM one-dose
OVCAR-3 = assay: NCI60 antitumor screening; format: cell-based, human; settings: 10 μM one-dose
OVCAR-4 = assay: NCI60 antitumor screening; format: cell-based, human; settings: 10 μM one-dose
OVCAR-5 = assay: NCI60 antitumor screening; format: cell-based, human; settings: 10 μM one-dose
OVCAR-8 = assay: NCI60 antitumor screening; format: cell-based, human; settings: 10 μM one-dose
NCI/ADR-RES = assay: NCI60 antitumor screening; format: cell-based, human; settings: 10 μM one-dose
SK-OV-3 = assay: NCI60 antitumor screening; format: cell-based, human; settings: 10 μM one-dose
786–0 = assay: NCI60 antitumor screening; format: cell-based, human; settings: 10 μM one-dose
A498 = assay: NCI60 antitumor screening; format: cell-based, human; settings: 10 μM one-dose
ACHN = assay: NCI60 antitumor screening; format: cell-based, human; settings: 10 μM one-dose
CAKI-1 = assay: NCI60 antitumor screening; format: cell-based, human; settings: 10 μM one-dose
RXF 393 = assay: NCI60 antitumor screening; format: cell-based, human; settings: 10 μM one-dose
SN12C = assay: NCI60 antitumor screening; format: cell-based, human; settings: 10 μM one-dose
TK-10 = assay: NCI60 antitumor screening; format: cell-based, human; settings: 10 μM one-dose
UO-31 = assay: NCI60 antitumor screening; format: cell-based, human; settings: 10 μM one-dose
PC-3 = assay: NCI60 antitumor screening; format: cell-based, human; settings: 10 μM one-dose
DU-145 = assay: NCI60 antitumor screening; format: cell-based, human; settings: 10 μM one-dose
MCF7 = assay: NCI60 antitumor screening; format: cell-based, human; settings: 10 μM one-dose
MDA-MB-231/ATCC = assay: NCI60 antitumor screening; format: cell-based, human; settings: 10 μM one-dose
HS 578T = assay: NCI60 antitumor screening; format: cell-based, human; settings: 10 μM one-dose
BT-549 = assay: NCI60 antitumor screening; format: cell-based, human; settings: 10 μM one-dose
T-47D = assay: NCI60 antitumor screening; format: cell-based, human; settings: 10 μM one-dose
MDA-MB-468 = assay: NCI60 antitumor screening; format: cell-based, human; settings: 10 μM one-dose
NCI60 cell lines panel = assay: NCI60 antitumor screening, full panel; format: cell-based, human; settings: 10 μM one-dose, mean over NCI60
Procedure, shortened: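 Percent growth inhibition (GI%) was recorded for each of the NCI60 lines, spanning leukaemia, lung, colon, CNS, melanoma, ovarian, renal, prostate and breast cancers, after exposure to compounds at one concentration, 10 μM.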

C=CCSc1nc(Nc2ccccc2)c(C#N)c(-c2ccccc2)n1 [E]
IC50 (HepG2): 3.56 µM

COc1ccc(-c2nc(-c3ccc(Cl)cc3)[nH]c(=O)c2C#N)cc1 [I]
antinociceptive activity compared to control [1]: more than 88%

CN[C@@H]1C[C@H]2O[C@@](C)([C@@H]1OC)n1c3ccccc3c3c4c(c5c6ccccc6n2c5c31)C(=O)NC4 [Staurosporine, reference compound]
Caspase 3 [2]: 766.2 ± 10.4 pg·mL

CC(C)CSc1nc(Nc2ccc(C(=O)O)cc2)c(C#N)c(-c2ccccc2)n1 [F]
GI value (MALME-3M [3]): 152.04%

N#Cc1c(-c2ccc(F)cc2)nc(SCc2ccc([N+](=O)[O-])cc2)[nH]c1=O [2c, 4-(4-Fluorophenyl)-2-((4-nitrobenzyl)thio)-6-oxo-1,6-dihydropyrimidine-5-carbonitrile]
GI% (CCRF-CEM): 15.45%
GI% (HL-60(TB)): 49.95%
GI% (K-562): 31.45%
GI% (MOLT-4): 24.34%
GI% (RPMI-8226): 14.16%
GI% (SR): — (GI% < 10)
GI% (A549/ATCC): — (GI% < 10)
GI% (EKVX): 12.04%
GI% (HOP-62): — (GI% < 10)
GI% (HOP-92): 33.01%
GI% (NCI-H226): 22.53%
GI% (NCI-H23): — (GI% < 10)
GI% (NCI-H322M): — (GI% < 10)
GI% (NCI-H460): — (GI% < 10)
GI% (NCI-H522): 30.52%
GI% (COLO 205): — (GI% < 10)
GI% (HCC-2998): — (GI% < 10)
GI% (HCT-116): 22.23%
GI% (HCT-15): 13.42%
GI% (HT29): 37.56%
GI% (KM12): — (GI% < 10)
GI% (SW-620): 10.78%
GI% (SF-268): — (GI% < 10)
GI% (SF-295): 10.37%
GI% (SF-539): — (GI% < 10)
GI% (SNB-19): — (GI% < 10)
GI% (SNB-75): — (GI% < 10)
GI% (U251): 13.78%
GI% (LOX IMVI): 14.24%
GI% (MALME-3M [4]): — (GI% < 10)
GI% (M14): — (GI% < 10)
GI% (MDA-MB-435): — (GI% < 10)
GI% (SK-MEL-2): — (GI% < 10)
GI% (SK-MEL-28): — (GI% < 10)
GI% (SK-MEL-5): 11.85%
GI% (UACC-257): — (GI% < 10)
GI% (UACC-62): 11.42%
GI% (IGROV1): — (GI% < 10)
GI% (OVCAR-3): — (GI% < 10)
GI% (OVCAR-4): — (GI% < 10)
GI% (OVCAR-5): — (GI% < 10)
GI% (OVCAR-8): — (GI% < 10)
GI% (NCI/ADR-RES): 12.03%
GI% (SK-OV-3): — (GI% < 10)
GI% (786–0): — (GI% < 10)
GI% (A498): — (GI% < 10)
GI% (ACHN): — (GI% < 10)
GI% (CAKI-1): 10.99%
GI% (RXF 393): — (GI% < 10)
GI% (SN12C): 14.07%
GI% (TK-10): — (GI% < 10)
GI% (UO-31): 11.53%
GI% (PC-3): 18.97%
GI% (DU-145): — (GI% < 10)
GI% (MCF7): — (GI% < 10)
GI% (MDA-MB-231/ATCC): — (GI% < 10)
GI% (HS 578T): — (GI% < 10)
GI% (BT-549): — (GI% < 10)
GI% (T-47D): 23.03%
GI% (MDA-MB-468): — (GI% < 10)
Mean GI% (NCI60 cell lines panel): — (GI% < 10)
